The record followed here is patent US10144742B2 (Millennium Pharmaceuticals, Inc., priority 2014, dated 2018).

One assay deals with PC3 cells. The experiment in a line: PC3 growth inhibition (Cell-titer glo, 72 hours). The format is cell-based. Particulars: Homo sapiens, PC-3; compound concentration 1.667 μM; PC3 cells, 72 hours, Cell-titer glo; read-out: Percent Inhibition (PC3 growth inhibition). Put shortly:
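Compounds in AIM serum-free medium were applied for 72 h at 37 °C, 5% CO2 to PC3 cells plated overnight from RPMI1640 culture. Luminescence after 10 min CellTiter-Glo, normalised to DMSO, gave % viability at 1 μM or 1.667 μM, or GI50/LD50.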

A further assay has as its target hNAMPT protein (Homo sapiens (Human), UniProt P43490). Description: NAMPT enzyme assay (TR-FRET/HTRF, BodiPY ligand, anti 6His-Tb). In kind it is binding. To be noted: for inhibition at 1 µM: NAMPT inhibition at compound concentration 1 μM, read-out: Percent Inhibition; for IC50: NAMPT inhibition, IC50 range class, read-out: IC50. Put shortly:
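Compound or DMSO was incubated for 1 h at room temperature, protected from light, with BodiPY ligand and hNAMPT labelled by terbium anti-6His antibody. The 520 nm to 486 nm emission ratio after 320 nm excitation gave inhibition versus vehicle, from which concentration-response curves yielded IC50.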

hNAMPT protein, sequence (P43490 whole entry): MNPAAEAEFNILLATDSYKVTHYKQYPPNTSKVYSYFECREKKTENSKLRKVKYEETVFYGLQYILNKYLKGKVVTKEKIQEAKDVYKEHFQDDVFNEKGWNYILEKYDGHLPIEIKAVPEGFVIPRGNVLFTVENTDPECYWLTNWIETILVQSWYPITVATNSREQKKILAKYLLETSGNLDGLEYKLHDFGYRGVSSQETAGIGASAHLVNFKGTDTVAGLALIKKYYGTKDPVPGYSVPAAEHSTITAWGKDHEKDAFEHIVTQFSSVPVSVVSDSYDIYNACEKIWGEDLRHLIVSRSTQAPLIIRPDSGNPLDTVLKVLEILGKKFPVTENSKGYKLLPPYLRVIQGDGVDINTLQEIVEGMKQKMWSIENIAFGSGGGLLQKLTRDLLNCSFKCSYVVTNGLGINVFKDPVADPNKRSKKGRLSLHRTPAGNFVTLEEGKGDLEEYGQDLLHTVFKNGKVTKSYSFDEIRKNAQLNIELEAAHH

As for `Cc1ccc(Cl)cc1-c1nc2cc(C(=O)NCCCc3ncc[nH]3)ccc2nc1-c1ccc(F)cc1` [Compound I-493, 3-(5-chloro-2-methylphenyl)-2-(4-fluorophenyl)-N-[3-(1H-imidazol-2-yl)propyl]quinoxaline-6-carboxamide], in the assay with PC3 cells, the inhibition (as a rule, the change of the read-out against control, counted positive when it falls) at 1.667 µM was determined as 1%. In addition, at hNAMPT protein, the inhibition at 1 µM is 98% and the half-inhibitory concentration (IC50) (in general, the point on the concentration scale where inhibition reaches its midpoint) is under 100 nM.
In the case of `Cc1ncsc1-c1nc2cc(C(=O)NCCCc3ncc[nH]3)ccc2nc1-c1ccc(F)cc1` [Compound I-494, 2-(4-fluorophenyl)-N-[3-(1H-imidazol-2-yl)propyl]-3-(4-methyl-1,3-thiazol-5-yl)quinoxaline-6-carboxamide], the inhibition at 1.667 µM in the assay with PC3 cells was 3%. In addition, at hNAMPT protein, the inhibition at 1 µM is over 99% and the IC50 was under 100 nM.
Taken in the same sequence, the figures for `N#CCCOc1nc2ccc(C(=O)NCCCc3ncc[nH]3)cc2nc1-c1ccc(F)cc1` [Compound I-496, 2-(2-cyanoethoxy)-3-(4-fluorophenyl)-N-[3-(1H-imidazol-2-yl)propyl]quinoxaline-6-carboxamide] were over 99%, 70% and 100 to 500 nM.
Taken in the same sequence, the figures for `Cc1ccc(-c2nc3cc(C(=O)NCCCc4ncc[nH]4)ccc3nc2-c2ccc(F)cc2)cc1` [Compound I-497, 2-(4-fluorophenyl)-N-[3-(1H-imidazol-2-yl)propyl]-3-(4-methylphenyl)quinoxaline-6-carboxamide] were 2%, 80% and 100 to 500 nM.
Consider `O=C(NCCCc1ncc[nH]1)c1ccc2nc(OCc3cccc(Cl)c3)c(-c3ccc(F)cc3)nc2c1` [Compound I-498, 2-[(3-chlorobenzyl)oxy]-3-(4-fluorophenyl)-N-[3-(1H-imidazol-2-yl)propyl]quinoxaline-6-carboxamide], for which, in the assay on PC3 cells, the inhibition at 1.667 µM worked out at 3%. In addition, on hNAMPT protein, the inhibition at 1 µM was determined as 84% and the 50% inhibitory concentration (IC50) is under 100 nM.
`O=C(NCCCc1ncc[nH]1)c1ccc2nc(-c3ccc(F)cc3)c(-c3ccc(Cl)s3)nc2c1` [Compound I-499, 3-(5-chloro-2-thienyl)-2-(4-fluorophenyl)-N-[3-(1H-imidazol-2-yl)propyl]quinoxaline-6-carboxamide]: the inhibition at 1.667 µM with PC3 cells turned out to be 2%. For the same compound, at hNAMPT protein, the inhibition at 1 µM came out at 98% and the IC50 was under 100 nM.
Taken in the same sequence, the figures for `O=C(NCCCc1ncc[nH]1)c1ccc2nc(OCC3CCCC3)c(-c3ccc(F)cc3)nc2c1` [Compound I-500, 2-(cyclopentylmethoxy)-3-(4-fluorophenyl)-N-[3-(1H-imidazol-2-yl)propyl]quinoxaline-6-carboxamide] were 3%, 93% and under 100 nM.
Taken in the same sequence, the figures for `N#Cc1ccc(F)c(-c2nc3cc(C(=O)NCCCc4ncc[nH]4)ccc3nc2-c2ccc(F)cc2)c1` [Compound I-501, 3-(5-cyano-2-fluorophenyl)-2-(4-fluorophenyl)-N-[3-(1H-imidazol-2-yl)propyl]quinoxaline-6-carboxamide] were 2%, 99% and under 100 nM.
In the case of `O=C(NCCCc1ncc[nH]1)c1ccc2nc(-c3ccc(F)cc3)c(-c3ccc(F)c(Cl)c3)nc2c1` [Compound I-502, N-(3-(1H-imidazol-2-yl)propyl)-3-(3-chloro-4-fluorophenyl)-2-(4-fluorophenyl)quinoxaline-6-carboxamide], in the assay with PC3 cells, the inhibition at 1.667 µM was found to be 2%. At hNAMPT protein, the inhibition at 1 µM came out at 97% and the IC50 was under 100 nM.
Taken in the same sequence, the figures for `Cc1cnn(-c2nc3ccc(C(=O)NCCCc4ncc[nH]4)cc3nc2-c2ccc(F)cc2)c1` [Compound I-503, 3-(4-fluorophenyl)-N-[3-(1H-imidazol-2-yl)propyl]-2-(4-methyl-1H-pyrazol-1-yl)quinoxaline-6-carboxamide] were 3%, 84% and 100 to 500 nM.
Taken in the same sequence, the figures for `O=C(NCCCc1ncc[nH]1)c1ccc2nc(-c3ccc(F)cc3)c(-c3sccc3Cl)nc2c1` [Compound I-504, 3-(3-chloro-2-thienyl)-2-(4-fluorophenyl)-N-[3-(1H-imidazol-2-yl)propyl]quinoxaline-6-carboxamide] were 3%, 93% and under 100 nM.
Taken in the same sequence, the figures for `CN1CCCC1CCOc1nc2ccc(C(=O)NCCCc3ncc[nH]3)cc2nc1-c1ccc(F)cc1` (stereo not drawn) [Compound I-505, 3-(4-fluorophenyl)-N-[3-(1H-imidazol-2-yl)propyl]-2-[2-(1-methylpyrrolidin-2-yl)ethoxy]quinoxaline-6-carboxamide] were 3%, over 99% and under 100 nM.
Turning to `CC(C)Oc1nc2ccc(C(=O)NCc3cn4cccnc4n3)cc2nc1-c1ccc(F)cc1` [Compound I-506, 3-(4-Fluorophenyl)-N-(imidazo[1,2-a]pyrimidin-2-ylmethyl)-2-isopropoxyquinoxaline-6-carboxamide], in the assay with PC3 cells, the inhibition at 1.667 µM is over 99%. Further, on hNAMPT protein, the inhibition at 1 µM was 78% and the 50% inhibitory concentration (IC50) lay within 100 to 500 nM.
In the same order, the values of `Cc1ccc(F)c(-c2nc3cc(C(=O)NCCCc4ncc[nH]4)ccc3nc2-c2ccc(F)cc2)c1` [Compound I-507, 3-(2-fluoro-5-methylphenyl)-2-(4-fluorophenyl)-N-[3-(1H-imidazol-2-yl)propyl]quinoxaline-6-carboxamide] are 2%, 97% and under 100 nM.
`O=C(NCCCc1cn[nH]c1)c1ccc2nc(-c3ccc(F)cc3)c(-c3ccc(F)cc3)nc2c1` [Compound I-508, 2,3-bis(4-fluorophenyl)-N-[3-(1H-pyrazol-4-yl)propyl]quinoxaline-6-carboxamide]: the inhibition at 1.667 µM with PC3 cells was found to be 3%. Moreover, on hNAMPT protein, the inhibition at 1 µM stood at 73% and the IC50 lay in the range of 100 to 500 nM.
`CN(C)CCOc1nc2ccc(C(=O)NCCCc3ncc[nH]3)cc2nc1-c1ccc(F)cc1` [Compound I-509, 2-[2-(dimethylamino)ethoxy]-3-(4-fluorophenyl)-N-[3-(1H-imidazol-2-yl)propyl]quinoxaline-6-carboxamide]: the inhibition at 1.667 µM in the assay on PC3 cells is 3%. For the same compound, on hNAMPT protein, the inhibition at 1 µM turned out to be 94% and the IC50 is under 100 nM.
As for `CN1CCCC(COc2nc3ccc(C(=O)NCCCc4ncc[nH]4)cc3nc2-c2ccc(F)cc2)C1` (stereo not drawn) [Compound I-510, 3-(4-fluorophenyl)-N-[3-(1H-imidazol-2-yl)propyl]-2-[(1-methylpiperidin-3-yl)methoxy]quinoxaline-6-carboxamide], the inhibition at 1.667 µM with PC3 cells is 2%. At hNAMPT protein, the inhibition at 1 µM was found to be 98% and the concentration for half-maximal inhibition (IC50) is under 100 nM.
`COc1cccc(-c2nc3cc(C(=O)NCCCc4ncc[nH]4)ccc3nc2OC(C)C)c1` [Compound I-511, N-[3-(1H-imidazol-2-yl)propyl]-2-isopropoxy-3-(3-methoxyphenyl)quinoxaline-6-carboxamide]: the inhibition at 1.667 µM in the assay with PC3 cells is 2%. Further, at hNAMPT protein, the inhibition at 1 µM is over 99% and the IC50 is under 100 nM.
As to `COc1cc(F)cc(-c2nc3cc(C(=O)NCCCc4ncc[nH]4)ccc3nc2-c2ccc(F)cc2)c1` [Compound I-512, 3-(3-fluoro-5-methoxyphenyl)-2-(4-fluorophenyl)-N-[3-(1H-imidazol-2-yl)propyl]quinoxaline-6-carboxamide], in the assay with PC3 cells, the inhibition at 1.667 µM is 2%. Moreover, on hNAMPT protein, the inhibition at 1 µM was determined as 92% and the 50% inhibitory concentration (IC50) is under 100 nM.
Taken in the same sequence, the figures for `CN1CCC(COc2nc3ccc(C(=O)NCCCc4ncc[nH]4)cc3nc2-c2ccc(F)cc2)C1` (stereo not drawn) [Compound I-513, 3-(4-fluorophenyl)-N-[3-(1H-imidazol-2-yl)propyl]-2-[(1-methylpyrrolidin-3-yl)methoxy]quinoxaline-6-carboxamide] were 3%, 99% and under 100 nM.
With `O=C(NCCCc1ncc[nH]1)c1ccc2nc(OC3CCNCC3)c(-c3ccc(F)cc3)nc2c1` [Compound I-514, 3-(4-fluorophenyl)-N-[3-(1H-imidazol-2-yl)propyl]-2-(piperidin-4-yloxy)quinoxaline-6-carboxamide], in the assay with PC3 cells, the inhibition at 1.667 µM was found to be 3%. Further, on hNAMPT protein, the inhibition at 1 µM was 97% and the half-maximal inhibitory concentration (IC50) is under 100 nM.
In the same order, the values of `COc1cc(-c2nc3cc(C(=O)NCCCc4nnc[nH]4)ccc3nc2-c2ccc(F)cc2)c(F)cn1` [Compound I-515, 3-(5-fluoro-2-methoxypyridin-4-yl)-2-(4-fluorophenyl)-N-[3-(4H-1,2,4-triazol-3-yl)propyl]quinoxaline-6-carboxamide] are 1%, 75% and 100 to 500 nM.
Taken in the same sequence, the figures for `COc1cc(-c2nc3cc(C(=O)NCc4nc5cnccc5[nH]4)ccc3nc2-c2ccc(F)cc2)c(F)cn1` [Compound I-516, 3-(5-fluoro-2-methoxypyridin-4-yl)-2-(4-fluorophenyl)-N-(1H-imidazo[4,5-c]pyridin-2-ylmethyl)quinoxaline-6-carboxamide] were 1%, 93% and under 100 nM.
In the same order, the values of `CCOc1cc(-c2nc3cc(C(=O)NCCCc4ncc[nH]4)ccc3nc2-c2ccc(F)cc2)c(F)cn1` [Compound I-517, 3-(2-ethoxy-5-fluoropyridin-4-yl)-2-(4-fluorophenyl)-N-[3-(1H-imidazol-2-yl)propyl]quinoxaline-6-carboxamide] are 1%, 76% and 100 to 500 nM.
